According to PMC7738871, “Covalent modification of Keap1 at Cys77 and Cys434 by pubescenoside a suppresses oxidative stress-induced NLRP3 inflammasome activation in myocardial ischemia-reperfusion injury” (Theranostics, 2021):

Tests used:
[1] = tested on: Keap1-dependent Nrf2 ubiquitination; assay: Keap1-dependent Nrf2 ubiquitination in 293T cells; type: cell-based, human; conditions: WT Keap1, 30 μM PBA 20 h, 5 μM MG132 4 h
Method: Alkylation of the BTB domain of Keap1 by covalent modifiers contributes to the disruption of the Keap1-Cul3 interactions, leading to Nrf2 activation. Next, we investigated the effect of PBA on the modulation of Nrf2 ubiquitination as Nrf2 stability is controlled by ubiquitin-mediated proteasomal degradation. First, 3X Flag-Keap1, Myc-Nrf2 and Ub plasmids were transfected into 293T cells and then, the cells were treated with 30 μM PBA for 20 h and 5 μM MG132 for another 4 h. Cell lysates were pulled down using anti-Myc beads, and immunopurified Nrf2 was examined for the occurrence of Ub by western blotting. […] As shown in Figure 6E-F, PBA could disrupt the interaction of Keap1 and Cul3 in WT-Keap1 cells, while the disruption was blocked in the Cys77S and Cys434-Keap1 mutant cells.
Figure 6 PBA suppresses Keap1-mediated ubiquitination of Nrf2 by disrupting the interaction between Cul3 and Keap1. (A and B) PBA suppressed Nrf2 ubiquitination in a Keap1-Cys77 and C434-dependent manner. First, 293T cells were transfected with WT-Keap1 or C77S and C434S-Keap1, Myc-Nrf2, and Ub plasmids for 24 h and treated with 30 μM PBA. The cell lysates were immunoprecipitated using anti-Myc beads, and the ubiquitination level was evaluated using the anti-Ub antibody. (C and D) PBA induced the dissociation of the Nrf2-Keap1 complex. Then, 293T cells were cotransfected with WT-Keap1 and Flag-Nrf2 plasmids for 24 h and treated with 30 μM PBA for 12 h. The cell lysates were immunoprecipitated with the anti-Flag antibody, and the level of Nrf2 was assessed using the anti-Nrf2 antibody. (E and F) PBA disrupted the interaction between Cul3 and Keap1. […] The cell lysates were immunoprecipitated with the anti-Flag antibody, and the level of Cul3 was measured using the anti-Cul3 antibody. #p < 0.05, ##p < 0.01, ###p < 0.001, the control vs DMSO; *p < 0.05,**p < 0.01, ***p < 0.001, PBA or tBHQ vs DMSO. […] Cell viability was measured by MTT assays. #p < 0.05, ###p < 0.001, the control vs OGD/R; **p < 0.01, ***p < 0.001, OGD/R+PBA vs OGD/R.

[2] = tested on: T1, interaction between Keap1 and Nrf2; assay: Co-IP of Keap1 and Nrf2 in 293T cells; type: cell-based, human; conditions: WT-Keap1, 30 μM PBA
T1 construct: expressed in transfected cells; host or cells: 293T
Method: Figure 6 PBA suppresses Keap1-mediated ubiquitination of Nrf2 by disrupting the interaction between Cul3 and Keap1. (A and B) PBA suppressed Nrf2 ubiquitination in a Keap1-Cys77 and C434-dependent manner. First, 293T cells were transfected with WT-Keap1 or C77S and C434S-Keap1, Myc-Nrf2, and Ub plasmids for 24 h and treated with 30 μM PBA. The cell lysates were immunoprecipitated using anti-Myc beads, and the ubiquitination level was evaluated using the anti-Ub antibody. (C and D) PBA induced the dissociation of the Nrf2-Keap1 complex. Then, 293T cells were cotransfected with WT-Keap1 and Flag-Nrf2 plasmids for 24 h and treated with 30 μM PBA for 12 h. The cell lysates were immunoprecipitated with the anti-Flag antibody, and the level of Nrf2 was assessed using the anti-Nrf2 antibody. (E and F) PBA disrupted the interaction between Cul3 and Keap1. The 293T cells were transfected with the WT-Keap1 or C77S-C434S-Keap1 plasmids for 24 h and treated with 30 μM PBA for 12 h. The cell lysates were immunoprecipitated with the anti-Flag antibody, and the level of Cul3 was measured using the anti-Cul3 antibody. #p < 0.05, ##p < 0.01, ###p < 0.001, the control vs DMSO; *p < 0.05,**p < 0.01, ***p < 0.001, PBA or tBHQ vs DMSO. […] Primary mouse cardiomyocytes were transfected with mouse WT-Keap1 or C77S and C434S-Keap1 mutant vectors. After 24 h, the cells were treated with the indicated doses of PBA and subjected to OGD conditions as described in the Method section for 3 h and under normal conditions for another 18 h. Cell viability was measured by MTT assays. #p < 0.05, ###p < 0.001, the control vs OGD/R; **p < 0.01, ***p < 0.001, OGD/R+PBA vs OGD/R.
To investigate the effect of PBA on the interaction of Keap1 and Nrf2, we transfected 293T cells with Flag-Keap1 and Myc-Nrf2 plasmids, and treated them with 30 μM PBA for 24 h. The protein expression of Nrf2 was measured by western blotting analysis followed by immunoprecipitation with Flag beads.

[3] = tested on: OGD/R-induced H9c2 cells; assay: OGD/R-induced injury, MTT viability, H9c2; type: cell-based, rat; conditions: 100 μM, compared with PBA
Method: For OGD/R treatment, H9c2 cells were washed twice with phosphate buffered saline (PBS). The medium was changed to glucose and serum free DMEM, and H9c2 cells were incubated in an incubator with 95% N2 and 5% CO2 at 37 °C. After 6 h, the medium was replaced with DMEM containing 10% FBS and 1% PS. Then H9c2 cells were returned to a normal incubator with 5% CO2 balanced with air at 37 °C for the indicated time.
Cell viability was determined by MTT assays. PBA was prepared to a stock solution dissolved in dimethyl sulfoxide (DMSO). RAW264.7, H9c2 cells, primary mouse cardiomyocytes were treated with different doses of PBA, and DMSO only as control for 48 h for the toxicity. In addition, H9c2 cells or primary mouse cardiomyocytes were treated with the indicated doses of PBA, diazoxide as positive control, DMSO only as control, then cultured with or without OGD/R treatment. At the end of the experiments, MTT was added into each well at the concentration of 0.5 mg/ml, and incubated at 37 °C for 4 h. After removal of the supernatant, 150 μL of DMSO was added to solubilize the formazan products. And the solution was measured at the absorbance of 490 nm by a spectrophotometer (Thermo Fisher Scientific, MA, USA). The results of the MTT assay in all groups were normalized to the control group with DMSO only treatment.

Row | SMILES | Keap1-dependent Nrf2 ubiquitination [1] | interaction between Keap1 and Nrf2 (Co-IP) [2] | protective effect against OGD/R induced injury (positive control) [3]
1 | CC(C)(C)c1cc(O)ccc1O [tBHQ, reference compound] | significantly suppressed | did not affect it | –
2 | CC1=NS(=O)(=O)c2cc(Cl)ccc2N1 [diazoxide, reference compound] | – | – | protective effect of PBA seemed equal to that of 100 μM diazoxide
